Test results from patent publication US20170014372A1, “Drug Combination for Treatment of Proliferative Diseases” (ECOLE POLYTECHNIQUE FEDERALE DE LAUSANNE (EPFL), priority 2014, published 2017).

Experiments:
786-0 cells = experiment: Cell viability assay on 786-0; type: cell-based, human; settings: 72 h
Description: (§1) Cell viability assay was performed as previously described (31). Cells were seeded in a 96-well culture plate at a density of 2.5-10×10^3 cells/well, depending on cell type (ECRF24 in gelatin-coated plates), 24 h prior to the application drug combinations or control conditions (in a total volume of 50 μl) and were subsequently incubated for an additional 72 h. Cell viability was assessed using the CellTiter-Glo luminescent cell viability assay (Promega, Madison, Wisc., USA).

ECRF24 cells = experiment: Cell viability (proliferation) assay on endothelial cells ECRF24; type: cell-based, human; settings: for single-drug dose required for the same EC proliferation inhibition as the best combination (90% inhibition): assuming linear dose-response curves; for theoretical dose reduction in combination: vs single-drug dose for 90% inhibition
Description: (§2) Cell viability assay was performed as previously described (31).
The feedback system control (FSC) technique was employed as previously described (13, 33, 34). In the research presented here, the FSC technique is implemented using the differential evolution (DE) algorithm (35) and two separate optimization were performed with the cellular outputs of ECRF cell viability (proliferation) and migration (wound healing) assays. 19 drug combinations were tested per iteration and 11 iterations were performed in each optimization, or until a plateau in the best output value was reached.
Drug mixing was performed as follows: stock solutions were first used to prepare the highest concentration of each compound and lower concentrations were prepared through serial dilutions of the higher concentrations. All drug concentrations were prepared 9 times more concentrated than desired to account for dilution by other compounds (or medium when a compound was not included). The drug mixtures were prepared directly before applying drug combinations to cells by first adding the required amount of medium for each combination (i.e.
all compounds which are included at concentration 0) and then adding the required concentration of each compound, always in the same order. The cells were incubated in 50 μl of each mixture for 72 h in the proliferation assay or for 6 h in the migration assay.
Second order linear regression models were generated using the data obtained from each optimization. Data was modeled using real concentration values and both concentration values and proliferation output data was transformed using the z-score function in Matlab. The negative values of the 2nd-order terms regression coefficients corresponds to synergistic effect, the positive value to the antagonistic effect. Appropriate data and model verification methods were implemented to ensure the accuracy and reliability of predictions made based on these models. The main assumptions of linear regression models were verified (i.e. weak exogeneity, linearity, constant variance, independence of errors, and lack of multicolinearity). As the presence of multicolinearity was indicated in a few of the regressors in the second order linear regression model of the proliferation data (based on the analysis of variance inflation factors (VIF) and condition indices), a stepwise linear regression was also performed to isolate the most important regressors and remove instabilities in the regression analysis due to multicolinearity. Drug interactions were additionally analyzed using the Compusyn software (14), where a ‘combination index’ (CI) is calculated for drug combinations and CI values less than […] indicate synergistic drug combinations, while CI-values greater than 1 indicate antagonistic drug.

HUVEC = experiment: Cell viability assay on HUVEC; type: cell-based, human; settings: 72 h
Description: as §2

A2780 cells = experiment: Cell viability assay on A2780; type: cell-based, human; settings: 72 h
Description: as §1

[1] = test system: panAKT, pMAPK and ribosomal protein S6 (pS6); experiment: Western blot of panAKT, pMAPK and pS6 in ECRF24; type: cell-based, human; settings: 5 hrs incubation
Description: Cells were seeded in a 6-well plate (30×10^4 cells per well) 24 h prior to the removal of medium and application of selected drug combinations or DMSO control (total volume of 2 mL). After an additional 5 hrs of incubation at the given conditions, medium was removed, cells were washed with PBS and 100 μl of buffer lysate was added (prepared on ice and composed of RIPA, protease inhibitors (1:1000) and sodium orthovanadate (1:1000)). Wells were then scratched and cell lysate solution was removed and put on ice for 10 min. Cell supernatant was isolated after centrifuging solution at 12,000 min^−1 for 15 min. A solution of blue buffer (4×)+u-Page Reducing Agent (10×) was added to supernatant and samples were kept at 95 ° C. for 5 min.
The samples were then run in an electrophoresis gel for 90 min at 125 V. The monoclonal antibodies included phosphorylated Akt (473), total Akt, phosphorylated MAPK, and phosphorylated S6 (235/236 hamster, Cell Signaling). Cell extracts were prepared by detergent lysis [50 mmol/L Tris-HCl (pH 8.0), 150 mmol/L NaCl, 1% NP40, 0.5% sodium deoxycholate, 0.1% SDS containing protease (Sigma, St. Louis, Mo.) and phosphatase (Sigma) inhibitor cocktails]. The soluble protein concentration was determined by micro-BSA assay (Pierce, Rockford Ill.). Protein immunodetection was done by electrophoretic transfer of SDS-PAGE separated proteins to nitrocellulose, incubation with antibody and chemiluminescent second step detection (PicoWest; Pierce). Protein expression was quantified in Fiji by densitometry as previously described (39, 40). Results were expressed as a relative ratio between samples and control.

[2] = test system: A2780 tumors grafted on the CAM; experiment: Human ovarian carcinoma (A2780) grafted on the chicken chorioallantoic membrane (CAM); type: in vivo, chicken embryo; settings: for tumor growth inhibition, single compound at high concentration: high concentration: 29 μg/kg (4) and 615 μg/kg (8); for tumor growth inhibition, single compound at low concentration: low concentration: 2.9 μg/kg (4) and 307 μg/kg (8)
Description: Human ovarian carcinoma tumors were implanted on the CAM as previously described (36). Briefly, fertilized chicken eggs were incubated in a hatching incubator (37° C. and relative humidity 65%), as previously described (37). […] Treatment began when vascularized tumors were visible, 3 days after tumor implantation (EDD10). Drug combinations were prepared as done in in vitro assays, were pre-mixed and administered as a 20 μL intravenously injection. […] On the last day of experiment CAM experiments, tumors were resected, fixed overnight in zinc fixative solution as previously described (38). […] Primary antibody incubation was performed overnight (DIA-310; Dianova, Hamburg, Germany).

LS174T tumors = experiment: Human colorectal adenocarcinoma (LS174T) grafted intradermally in Swiss nu/nu mice; type: in vivo; settings: treated daily; for tumor growth inhibition: doses per Table 2
Description: Mice were randomized into groups and treated with sham (CTRL), individual drugs, 4+8+9 (M1 and M2), and 4+8 (M3), respectively (Table 2) Individual drugs inhibited tumor growth only by approximately 0% and 6% (4) at 5 and 15 mg/kg, 10% (8) or 23% (9), whereas combinations M1 and M2 by 76±14% and 25±17%, respectively (FIG. 5D). On the last day of the experiment (FIG. 5E) tumors were resected, and paraffin embedded for immunohistochemical staining for endothelial cells (CD31). In M1-treated tumors microvessel density was approximately 80% lower then in sham-treated tumors (CTRL), FIG. 5F.
FIG. 5. Inhibition of A2780 (A-C) or LS174T (D-F) tumor growth in vivo by the best mixtures optimized. (A) Growth curve of A2780 tumors grafted on the CAM showing tumor volume with respect to treatment day. Treatment was administered i.v. on days 1 and 2 and tumors were excised on the 8th (last) day of experiment. Data points represent the average tumor volume as a percentage of the final control volume per experiment. (B) Figures show representative tumors of sham treated (CTRL) and F drug combination. (C) The microvessel density profiles are expressed as the number of vessels per mm^2 and presented as a percentage of a control. (D) LS174T grafted intradermally in Swiss nu/nu mice and treated daily with single compounds or mixtures. Data points represent the average tumor volume as a percentage of the final control volume per experiment and error bars represent the SEM; N=3-9. *p <0.05 and **p<0.01. ‘S’ indicates synergy (Cl≦0.8). (E) The microvessel density profiles are expressed as the number of vessels per mm^2 and presented as a percentage of a control. […] The bar in the upper right image represents 0.5 mm and is valid for both images. Data points represent average values of 2 independent experiments and error bars represent SEM; N=3-7; **p<0.01.

[3] = test system: renal cell carcinoma (Caki-1) cells; settings: combinations of Table 4
Description: as §1

## CNC(=O)c1ccccc1Sc1ccc2c(/C=C/c3ccccn3)n[nH]c2c1 [compound 3, axitinib]
786-0 cells
  inhibition of 786-0 cell viability: approx. 30%

## C#Cc1cccc(Nc2ncnc3cc(OCCOC)c(OCCOC)cc23)c1 [compound 4, erlotinib]
ECRF24 cells
  single-drug dose required for the same EC proliferation inhibition as the best combination (90% inhibition): approximately 50 μM
  theoretical dose reduction in combination: 5 fold
HUVEC
  inhibition of HUVEC viability: more sensitive
A2780 cells
  inhibition of A2780 cell viability: approximately 40%
[1]
  pAkt protein: slight decrease
[2]
  tumor growth inhibition, single compound at high concentration: ~20%
  tumor growth inhibition, single compound at low concentration: approximately 6%
LS174T tumors; 5 mg/kg
  tumor growth inhibition at 5 mg/kg: approximately 0%
LS174T tumors; 15 mg/kg
  tumor growth inhibition at 15 mg/kg: ~6%

## Cc1ccc(C(C)C)cc1.[Cl][Ru]([Cl])[PH]12CN3CN(CN(C3)C1)C2 [compound 8, RAPTA-C]
ECRF24 cells
  single-drug dose required for the same EC proliferation inhibition as the best combination (90% inhibition): ~2000 µM
  theoretical dose reduction in combination: 11 fold
[1]
  pAkt protein: slight decrease
[2]
  tumor growth inhibition, single compound at high concentration: ~20%
  tumor growth inhibition, single compound at low concentration: approximately 6%
LS174T tumors
  tumor growth inhibition: ~10%

## Cn1c(=O)n(-c2ccc(C(C)(C)C#N)cc2)c2c3cc(-c4cnc5ccccc5c4)ccc3ncc21 [compound 9, BEZ-235]
ECRF24 cells
  single-drug dose required for the same EC proliferation inhibition as the best combination (90% inhibition): ~0.12 µM
  theoretical dose reduction in combination: 6 fold
HUVEC
  inhibition of HUVEC viability: more sensitive
[1]
  pS6 expression: nearly complete inhibition
[1]; listed as BEZ235
  pS6 expression: inhibited
[2]; limiting compound, dose used in the combinations
  tumor growth inhibition, single compound at its applied concentration: approximately 35%
LS174T tumors
  tumor growth inhibition: ~23%

## AZD4547
[3]
  inhibition of Caki-1 cell proliferation / synergy: effective and synergistic inhibition
